# Reference: patent US6583127B1, “Use of etherlysophospholipids as antiinflammatory agents” (Inkeysa. SA, priority 1998, dated 2003)
# Legend:
# [1] = test system: bentonite-induced skin edema in mice; test: Bentonite-induced skin edema in mice; type: in vivo; conditions: for Area (area below the curve of difference between right and left pad diameter) / Inhibition of the inflammatory process: mice; for Inhibition of the inflammatory process: versus inflamed control
# Description: Mice were individually identified with an ear code and were kept in groups of 6 per cage (Makrolon: 47.6×22.7×14.5 cm). Each cage was individually labelled with the n^o. of the study, type of treatment, doses used and route of administration, as well as the name of the director of the study, number and gender of contained animals, date of arrival and of the beginning of the experiment.
# The animals had free access to mouse standard chow (UAR A04C; Usine d'Alimentation Rationelle, 91360-Villemoisson sur Orge, Francia; lot nos. 70520 and 70722). Drinking water access was ad libitum. The water, supplied by the Compañia de Aguas de Sabadell, S.A., is routinely analysed for the presence of possible contaminants. The temperature in the animal rooms was 22±3° C., with sporadic peaks of 26° C.; air humidity was 60±10%, with sporadic peaks of 80%. Daily light (between 7:00 h and 19:00 h) and dark phases were installed automatically.
# Upon arrival, all animals were allowed to rest in the facilities for 8 days before use in the experiment. Table 2 indicates the six random groups of 10 mice each were set for experimentation.
# The diameter of both hind pads of all mice was measured at day 0 and set as the basal value. Edema was then induced by injecting s.c. 13.3 mg/ml bentonite in 0.03 ml PBS into the right food pad. The corresponding mice were given daily the different compounds orally for 21 days. The inflamed control group was given 0.2 ml PBS only. The diameter of hind pads, as well as the body weight, was then measured every other day.
# In each experimental group the average value, the standard deviation (SD) and the standard error was determined for the two parameters studied (hind pad diameter and body weight). The factor variance analysis (FVA) was used to compare the values obtained in the different groups. Where statistically significant differences were observed, the Duncan-Kramer test for a p<0.05 was applied.
# The area below the curves corresponding to the diameters of the right and left pads was calculated and the evolution of the difference between them were plotted (FIGS. 7 and 8). The anti-inflammatory capacity of the different substances was evaluated as the extent of inhibition of the inflammatory process that was calculated with the formula [formula]
# where C is the area below the inflammed control group and T the area below the different treatment groups.
# [2] = test system: PGE2 production in murine fibroblasts 3T3; test: PGE2 measurement in 3T3 cells (enzyme immunoassay); type: cell-based, Mouse; conditions: for pg PGE2 (intracellular): 3T3 cells, 20 min at 37° C., Control 112 ± 21; for effect on PGE2 production (in words): 3T3 fibroblasts, ionomycin-induced PGE2
# Procedure: Cell culture. Human promyelocytic HL-60 cells and promonocytic U937 cells were grown in RPMI-1640 culture medium supplemented with 10% (v/v) heat-inactivated fetal calf serum, 2 mM L-glutamine, 100 units/ml penicillin and 24 μg/ml gentamicin. Mouse 3T3 fibroblasts were grown in Dulbecco's modified Eagle's medium (DMEM) supplemented with 10% (v/v) heat-inactivated fetal calf serum, 2 mM L-glutamine, 100 units/ml penicillin and 24 μg/ml gentamicin. Cells were incubated at 37° C. in a humidified atmosphere at 5% CO2 and 95% air.
# Prostaglandin E2 (PGE2) measurement. 3T3 cells (1.5×10^5 in 100 μl in complete DMEM culture medium) were incubated overnight at 37° C. (5% CO2) in 96-well microtitre plates (tissue-culture grade). Then, the distinct agents were added in 100 μl complete DMEM culture medium for 20 min at 37° C. After washing thoroughly the cells with PBS, cells were lysed and intracellular PGE2 was measured using an enzyme immunoassay kit (Amersham Pharmacia Biotech, Buckinghamshire, UK) following the manufacturer's instructions. Data obtained in duplicate measurements were converted into actual amounts of PGE2 using a calibration curve run in parallel with defined amounts of PGE2.
# [3] = test system: experimental colitis induced by TNB (2,4,6-trinitrobenzenesulphonic acid); test: Rat model of experimental colitis induced by TNB, macroscopic evaluation; type: in vivo; parameters: Wet Weight (colon): unit not given beside the values; conditions: Wistar rat, 2.5 mg/Kg p.o.; for Wet Weight (colon) / Sample 2 × 6 mm / Score (0-10) / Weight/mm: Mean ± SEM
# Procedure: The therapeutic potential for the treatment of ulcerative colitis of IEC01 at 2.5 and 5 mg/kg and IES01 at 2.5 mg/kg, was evaluated after their administration by oral route during 14 days (7 days of preventive treatment and 7 days of therapeutic treatment) using the rat model of experimental colitis induced by TNB (2,4,6-trinitrobenzenesulphonic acid). As reference parameters, the body weight, wet colon weight and score macroscopic evaluation were evaluated after 24 hours and after 7 days of the intraluminal administration of TNB in the colon. […] The inflammatory response is recognised by the presence of ulcerative fissures, faecal shatters and inflammation of bowel wall. A chronic inflammatory response was observed 7 days after the administration. An erratic response with lineal or punctual ulcers, necrosis, faecal shatters, reduction of colonic lumen, granulomas and peritoneal adherence was observed.
# [4] = Body weight evaluation in the TNB colitis rat model; type: in vivo; conditions: Wistar rat, 2.5 mg/Kg p.o.; Mean ± SEM
# Procedure: The therapeutic potential for the treatment of ulcerative colitis of IEC01 at 2.5 and 5 mg/kg and IES01 at 2.5 mg/kg, was evaluated after their administration by oral route during 14 days (7 days of preventive treatment and 7 days of therapeutic treatment) using the rat model of experimental colitis induced by TNB (2,4,6-trinitrobenzenesulphonic acid). As reference parameters, the body weight, wet colon weight and score macroscopic evaluation were evaluated after 24 hours and after 7 days of the intraluminal administration of TNB in the colon.
# [5] = test system: PGE2 synthesis in human mucosal gastric biopsies; test: Ex vivo PGE2 synthesis in human mucosal gastric biopsies; conditions: for pg PGE2/mg (weight): human mucosal gastric biopsies, agents 10 μM, 20 min at 37° C., Control 115 ± 26, mean ± S.D., three experiments
# Procedure: The ability of the gastric mucosa to generate prostaglandins estimates total cyclooxygenase (COX) activity (COX-1 plus any COX-2). To measure ex vivo prostaglandin E2 (PGE2) synthesis, normal gastric mucosal biopsies were immediately placed in Ependorff tubes containing phosphate-buffered saline (PBS). […] Each mucosal gastric biopsy was cut into different pieces (about 1 mg weight) that were subsequently weighed and incubated in the absence or in the presence of the distinct agents indicated in the corresponding Table for 20 min at 37° C. in 200 μl Hepes-glucose buffer. Then cells were mucosal gastric samples were pelleted by centrifugation, lysed and intracellular PGE2 was measured using an enzyme immunoassay kit (Amersham Pharmacia Biotech, Buckinghamshire, UK) following the manufacturer's instructions. Prostaglandin synthesis is expressed as picograms of PGE2 synthesised per mg of tissue incubation. Each experiment corresponded to the use of one biopsy, in order to avoid variability among different biopsies. Normal volunteers without a previous pharmacological treatment were selected for these assays. The normal gastroduodenal mucosa was visually assessed by endoscopy.
# Human mucosal gastric biopsies were cut into about 1 mg pieces, incubated with the indicted agents (10 μM) for 20 min at 37° C. in Hepes-glucose buffer, and then the intracellular content of PGE2 was determined as described in the Methods section. Untreated control samples were run in parallel. Data are shown as mean Values+S.D. from three independent experiments.
# CD11b = test: Cell surface expression of CD11b in human neutrophils (immunofluorescence flow cytometry); type: cell-based; conditions: 10 ng/ml, rMFI=(MFIagent×100)/MFImedium, Medium = 100
# Description: (§1) Isolation and treatment of neutrophils.
# (§2) Monoclonal antibodies. […] The antibodies are commercially available.
# (§3) Immunofluorescence flow cytometry. […] Results were expressed as relative MFI (rMFI), such that
# (§4) rMFI=(MFIagent×100)/MFImedium
# (§5) Background fluorescence was substracted from all values.
# CD43 = test: Cell surface expression of CD43 in human neutrophils (immunofluorescence flow cytometry); type: cell-based; conditions: 10 ng/ml, Medium = 100
# Description: as §1, §2, §3, §4, §5
# CD44 = test: Cell surface expression of CD44 in human neutrophils (immunofluorescence flow cytometry); type: cell-based; conditions: 10 ng/ml, Medium = 100
# Description: as §1, §2, §3, §4, §5
# L-selectin (CD62L) [6] = test: Cell surface expression of L-selectin in human neutrophils (immunofluorescence flow cytometry); type: cell-based
# Description: as §1, §2, §3, §4, §5
# HLA = conditions: human neutrophils, 10 ng/ml; Medium = 100
# Procedure: Isolation and treatment of neutrophils. Human neutrophils were obtained from fresh peripheral blood by dextran sedimentation and centrifugation on Ficoll-Hypaque followed by hypotonic lysis of residual erythrocytes. […] Cells were resuspended at 3×10^6 neutrophils/ml in HEPES/glucose buffer (150 mM NaCl, 5 mM KCl, 10 mM HEPES, 1.2 mM MgCl2, 1.3 mM CaCl2, 5.5 mM glucose, pH 7.5), and incubated in the absence or presence of distinct agents at 37° C. for the times indicated in the respective legends to figures. Subsequently, cells were pelleted by centrifugation and saved to determine the content of different cell surface antigens by flow cytometry.
# Monoclonal antibodies. The following monoclonal antibodies were used: TS1/11 anti-CD11a, Bear-1 anti-CD11b, TP1/36.1 anti-CD43, HP2/9 anti-CD44, Leu-8 anti-L-selectin, and W6/32, specific for a monomorphic determinant on HLA-A, B molecules. P3X63 myeloma culture supernatant was used as a negative control. The antibodies are commercially available.
# Immunofluorescence flow cytometry. Immunofluorescence flow cytometry analysis was performed in a FACStar-Plus and a FACScan flow cytometers (Becton-Dickinson). Neutrophils were incubated at 4° C. with the corresponding monoclonal antibody followed by washing and labelling with a fluorescein isothiocyanate (FITC)-labelled-goat anti-mouse IgG antibody (DAKO, Glostrup, Denmark). Mean fluorescence intensity (MFI) in linear scale was obtained from at least 7000 cells in each sample, and the fluorescence produced by the myeloma P3X63 supernatant was considered as background. Results were expressed as relative MFI (rMFI), such that
# as §4, §5
# CD11a = test: Cell surface expression of CD11a in human neutrophils (immunofluorescence flow cytometry); type: cell-based; conditions: 10 ng/ml, Medium = 100
# Description: as §1, §2, §3, §4, §5
# L-selectin (CD62L) [7] = conditions: literature value, González-Alvaro et al., J. Rheumatol., 23, 723 (1996); cited from earlier work
# [8] = 2.5 mg/kg orally daily for 21 days
# [9] = 5 mg/kg orally daily for 21 days
# [10] = after 24 hours of intraluminal administration
# [11] = after 7 days of intraluminal administration
# [12] = 2 mg/kg orally daily for 21 days
smiles,measurement,setting,value
CCCCCCCCCCCCCCCCOCC(COP(=O)(O)OCC(N)C(=O)O)OC (stereo not drawn) [IES01],"times more efficient in inhibiting inflammation than indomethacin, at the molecular level","[1]; 2.5 mg/kg versus indomethacin 2 mg/kg, taking molecular weights into account",3.8 times
same,Area (area below the curve of difference between right and left pad diameter),[1]; [8],4.4 ± 0.63 A.U.
same,Inhibition of the inflammatory process,[1]; [8],43.8%
same,Area (area below the curve of difference between right and left pad diameter),[1]; [9],5.6 ± 0.70 A.U.
same,Inhibition of the inflammatory process,[1]; [9],28.3%
same,pg PGE2 (intracellular),[2]; 10 μM,192 ± 25 pg
same,effect on PGE2 production (in words),[2],no significant inhibition
same,"% (inhibition, Sample 2 × 6 mm)",[3]; [10],80.2%
same,"% (inhibition, Score)",[3]; [10],65.7%
same,"% (inhibition, Weight/mm)",[3]; [10],75.2%
same,"% (inhibition, Wet Weight)",[3]; [10],75.3%
same,Wet Weight (colon),[3]; after 24 hours of intraluminal administration in the colon,1.425 ± 0.20
same,Sample 2 × 6 mm,[3]; [10],272.70 ± 44.43 mg
same,Score (0-10),[3]; [10],3.2 ± 0.86
same,Weight/mm,[3]; [10],0.158 ± 0.02
same,"% (inhibition, Sample 2 × 6 mm)",[3]; [11],31.7%
same,"% (inhibition, Weight/mm)",[3]; [11],11.1%
same,"% (inhibition, Wet Weight)",[3]; [11],11.1%
same,Wet Weight (colon),[3]; after 7 days of intraluminal administration in the colon,1.365 ± 0.24
same,"% (inhibition, Score)","[3]; after 7 days of intraluminal administration, 2.5 mg/kg",50%
same,Sample 2 × 6 mm,[3]; [11],185.04 ± 23.18 mg
same,Score (0-10),[3]; [11],2.0 ± 0.84
same,Weight/mm,[3]; [11],0.151 ± 0.03
same,Body weight DAY 1,[4],232.3 ± 2.68 g
same,Body weight DAY 2,[4],234.5 ± 2.94 g
same,Body weight DAY 4,[4],241.9 ± 2.40 g
same,Body weight DAY 7,[4],211.4 ± 2.48 g
same,Body weight DAY 8,[4],218.8 ± 3.57 g
same,Body weight DAY 11,[4],244.4 ± 4.95 g
same,Body weight DAY 12,[4],250.0 ± 4.72 g
same,Body weight DAY 13,[4],249.8 ± 6.84 g
same,Body weight DAY 14,[4],254.0 ± 8.44 g
"COc1ccc2c(c1)c(CC(=O)O)c(C)n2C(=O)c1ccc(Cl)cc1 [Indomethacin, reference compound]",Area (area below the curve of difference between right and left pad diameter),[1]; [12],6.6 ± 0.92 A.U.
same,Inhibition of the inflammatory process,[1]; [12],15.3%
same,pg PGE2 (intracellular),[2]; 50 μM,4 ± 2 pg
same,effect on PGE2 production (in words),[2],almost completely inhibited
same,pg PGE2/mg (weight),[5],7 ± 2 pg PGE2/mg
same,effect on mucosal PGE2 synthesis (in words),"[5]; normal mucosal gastric biopsies, ex vivo",completely blocked
"C[C@H](CCC(=O)O)C[C@H](C)C[C@H](C)C(=O)/C=C(\O)[C@H](C)C[C@H](C)C/C=C/[C@@H](C)[C@@H](O)[C@@H](C)[C@@H](O)C[C@@H]1CC[C@@](C)([C@H]2CC[C@@](C)([C@@H](C)O)O2)O1 [Ionomycin, reference compound]",pg PGE2 (intracellular),[2]; 50 μM,486 ± 38 pg
same,pg PGE2/mg (weight),[5],308 ± 31 pg PGE2/mg
"CCCCCCCCCCCCCC(=O)O[C@@H]1[C@@H](C)[C@@]2(O)[C@@H](C=C(CO)C[C@]3(O)C(=O)C(C)=C[C@@H]23)[C@@H]2C(C)(C)[C@]12OC(C)=O [PMA, reference compound]",CD11b cell surface expression (rMFI),CD11b,272 ± 22
same,CD43 cell surface expression (rMFI),CD43,33.5 ± 9
same,CD44 cell surface expression (rMFI),CD44,49.5 ± 11
same,L-Selectin cell surface expression (rMFI),"L-selectin (CD62L) [6]; human neutrophils, 10 ng/ml, Medium = 100",38 ± 7
same,HLA cell surface expression (rMFI),HLA,96 ± 7
same,CD11a cell surface expression (rMFI),CD11a,95 ± 8
"O=C(O)COC(=O)Cc1ccccc1Nc1c(Cl)cccc1Cl [aceclofenac, reference compound]",IC50,"L-selectin (CD62L) [6]; converted from μg/ml values, read-out: IC50 for L-selectin down-regulation, corrected for molecular weight",14.1 µM
same,IC50 for L-selectin down-regulation,L-selectin (CD62L) [7],5 mg/L
